Experimental data from ChEMBL document CHEMBL5291721, “A preclinical secondary pharmacology resource illuminates target-adverse drug reaction associations of marketed drugs” (Nat Commun, 2023).

What was measured:
Progesterone receptor = target: T1, Progesterone receptor (Homo sapiens, UniProt P06401); format: functional
T1 sequence (P06401 whole entry): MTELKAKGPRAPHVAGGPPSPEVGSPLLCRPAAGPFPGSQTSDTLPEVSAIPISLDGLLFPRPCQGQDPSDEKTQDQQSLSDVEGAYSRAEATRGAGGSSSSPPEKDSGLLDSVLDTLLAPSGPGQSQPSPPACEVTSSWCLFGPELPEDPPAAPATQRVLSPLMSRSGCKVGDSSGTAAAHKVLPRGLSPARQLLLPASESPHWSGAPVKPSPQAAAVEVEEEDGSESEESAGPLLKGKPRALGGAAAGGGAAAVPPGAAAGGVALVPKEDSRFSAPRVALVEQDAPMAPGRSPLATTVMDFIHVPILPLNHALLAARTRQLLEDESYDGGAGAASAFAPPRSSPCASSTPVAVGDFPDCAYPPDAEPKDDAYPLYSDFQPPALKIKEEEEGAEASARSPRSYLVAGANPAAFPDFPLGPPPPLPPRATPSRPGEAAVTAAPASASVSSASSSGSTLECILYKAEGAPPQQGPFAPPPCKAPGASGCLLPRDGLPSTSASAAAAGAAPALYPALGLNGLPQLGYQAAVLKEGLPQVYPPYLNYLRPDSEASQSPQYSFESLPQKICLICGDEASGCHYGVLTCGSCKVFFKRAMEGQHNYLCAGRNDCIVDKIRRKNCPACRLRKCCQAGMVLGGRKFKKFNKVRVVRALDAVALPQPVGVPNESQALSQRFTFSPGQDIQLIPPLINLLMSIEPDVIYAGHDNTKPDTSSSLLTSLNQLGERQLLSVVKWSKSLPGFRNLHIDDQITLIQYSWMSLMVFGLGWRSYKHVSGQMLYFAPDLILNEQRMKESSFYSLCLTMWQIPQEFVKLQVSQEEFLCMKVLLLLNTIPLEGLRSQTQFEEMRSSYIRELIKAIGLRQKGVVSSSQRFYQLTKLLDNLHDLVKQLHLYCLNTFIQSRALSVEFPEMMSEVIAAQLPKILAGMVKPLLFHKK

Mu-type opioid receptor = Mu-type opioid receptor (Homo sapiens, UniProt P35372); test: biochemical; format: functional
Mu-type opioid receptor, sequence (P35372 whole entry): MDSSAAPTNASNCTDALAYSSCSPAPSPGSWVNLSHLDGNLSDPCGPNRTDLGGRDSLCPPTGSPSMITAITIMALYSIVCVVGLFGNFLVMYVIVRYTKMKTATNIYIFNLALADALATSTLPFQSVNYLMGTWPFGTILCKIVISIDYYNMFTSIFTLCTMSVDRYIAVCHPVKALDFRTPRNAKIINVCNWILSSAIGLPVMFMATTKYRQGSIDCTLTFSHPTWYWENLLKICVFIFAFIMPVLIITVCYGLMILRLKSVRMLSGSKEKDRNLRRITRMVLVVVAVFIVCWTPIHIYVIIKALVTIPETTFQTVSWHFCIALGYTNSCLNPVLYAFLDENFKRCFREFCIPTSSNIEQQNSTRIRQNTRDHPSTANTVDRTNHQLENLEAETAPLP

[1] = target: T2, Muscarinic acetylcholine receptor M2 (Homo sapiens, UniProt P08172)
T2 sequence (P08172 whole entry): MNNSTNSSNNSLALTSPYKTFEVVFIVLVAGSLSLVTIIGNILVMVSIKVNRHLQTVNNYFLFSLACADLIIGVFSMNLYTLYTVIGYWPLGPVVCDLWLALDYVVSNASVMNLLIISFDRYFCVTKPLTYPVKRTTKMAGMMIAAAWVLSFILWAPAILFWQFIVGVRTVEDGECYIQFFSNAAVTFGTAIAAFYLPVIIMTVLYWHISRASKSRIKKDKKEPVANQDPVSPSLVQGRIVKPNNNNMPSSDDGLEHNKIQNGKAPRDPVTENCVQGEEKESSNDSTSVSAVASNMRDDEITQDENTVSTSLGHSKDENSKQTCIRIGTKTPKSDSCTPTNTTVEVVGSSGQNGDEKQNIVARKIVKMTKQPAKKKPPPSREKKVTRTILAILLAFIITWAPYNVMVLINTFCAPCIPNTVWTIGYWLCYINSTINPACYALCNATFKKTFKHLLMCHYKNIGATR

[2] = target: T3, Alpha-2A adrenergic receptor (Homo sapiens, UniProt P08913)
T3 sequence (P08913 whole entry): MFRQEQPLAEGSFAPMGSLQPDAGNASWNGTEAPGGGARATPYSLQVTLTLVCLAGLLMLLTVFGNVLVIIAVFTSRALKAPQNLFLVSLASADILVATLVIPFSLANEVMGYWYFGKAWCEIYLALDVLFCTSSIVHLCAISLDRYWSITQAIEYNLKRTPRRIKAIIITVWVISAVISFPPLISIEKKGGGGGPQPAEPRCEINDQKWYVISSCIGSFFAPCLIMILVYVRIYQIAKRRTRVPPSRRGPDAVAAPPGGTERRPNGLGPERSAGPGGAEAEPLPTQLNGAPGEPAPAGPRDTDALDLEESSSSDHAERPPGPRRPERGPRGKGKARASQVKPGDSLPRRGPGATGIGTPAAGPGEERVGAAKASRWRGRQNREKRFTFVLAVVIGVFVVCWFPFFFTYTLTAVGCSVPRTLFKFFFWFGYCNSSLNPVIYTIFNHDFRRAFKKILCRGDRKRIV

Histamine H1 receptor = Histamine H1 receptor (Homo sapiens, UniProt P35367)
Histamine H1 receptor, sequence (P35367 whole entry): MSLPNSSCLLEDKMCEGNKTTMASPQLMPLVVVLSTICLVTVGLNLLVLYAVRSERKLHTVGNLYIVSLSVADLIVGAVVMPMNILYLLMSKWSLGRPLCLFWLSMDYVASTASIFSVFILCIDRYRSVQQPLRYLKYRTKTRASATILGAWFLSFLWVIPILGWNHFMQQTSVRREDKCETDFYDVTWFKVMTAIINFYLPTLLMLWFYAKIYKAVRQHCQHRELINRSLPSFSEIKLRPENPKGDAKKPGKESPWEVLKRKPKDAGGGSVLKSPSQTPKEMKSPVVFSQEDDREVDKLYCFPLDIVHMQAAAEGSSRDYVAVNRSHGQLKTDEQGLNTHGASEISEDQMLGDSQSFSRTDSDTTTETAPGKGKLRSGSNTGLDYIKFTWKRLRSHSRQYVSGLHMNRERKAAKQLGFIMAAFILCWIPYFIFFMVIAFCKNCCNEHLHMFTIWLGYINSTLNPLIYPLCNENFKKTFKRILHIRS

[3] = target: T4, Endothelin receptor type B (Homo sapiens, UniProt P24530)
T4 sequence (P24530 whole entry): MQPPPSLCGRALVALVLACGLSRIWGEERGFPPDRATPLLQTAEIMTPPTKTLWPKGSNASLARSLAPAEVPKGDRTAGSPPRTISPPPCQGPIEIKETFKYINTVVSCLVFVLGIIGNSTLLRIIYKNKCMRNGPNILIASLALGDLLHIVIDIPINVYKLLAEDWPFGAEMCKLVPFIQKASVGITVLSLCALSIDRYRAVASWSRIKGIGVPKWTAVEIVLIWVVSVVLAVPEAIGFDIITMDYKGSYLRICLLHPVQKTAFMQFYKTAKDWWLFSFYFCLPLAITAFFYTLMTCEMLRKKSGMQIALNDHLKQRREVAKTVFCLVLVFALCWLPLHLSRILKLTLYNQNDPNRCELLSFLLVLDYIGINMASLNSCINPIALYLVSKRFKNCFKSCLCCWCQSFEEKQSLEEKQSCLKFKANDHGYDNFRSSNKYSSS

[4] = target: Muscarinic acetylcholine receptor M3 (Homo sapiens, UniProt P20309)
Muscarinic acetylcholine receptor M3, sequence (P20309 whole entry): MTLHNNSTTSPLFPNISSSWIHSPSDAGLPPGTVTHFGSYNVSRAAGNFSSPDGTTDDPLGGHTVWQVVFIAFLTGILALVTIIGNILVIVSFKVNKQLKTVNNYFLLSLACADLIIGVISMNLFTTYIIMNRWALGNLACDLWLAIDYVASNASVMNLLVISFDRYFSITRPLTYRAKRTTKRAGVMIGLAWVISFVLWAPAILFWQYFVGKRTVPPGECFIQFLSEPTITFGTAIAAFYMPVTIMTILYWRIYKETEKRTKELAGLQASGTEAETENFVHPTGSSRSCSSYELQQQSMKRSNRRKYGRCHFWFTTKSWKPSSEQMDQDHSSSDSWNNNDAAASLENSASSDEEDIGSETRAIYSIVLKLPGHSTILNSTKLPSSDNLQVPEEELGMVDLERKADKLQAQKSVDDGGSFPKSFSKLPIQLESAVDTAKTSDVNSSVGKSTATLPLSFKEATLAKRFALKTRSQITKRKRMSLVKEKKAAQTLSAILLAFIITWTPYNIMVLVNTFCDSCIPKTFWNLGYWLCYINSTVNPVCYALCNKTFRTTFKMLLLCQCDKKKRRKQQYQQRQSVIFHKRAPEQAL

[5] = target: T5, Corticotropin-releasing factor receptor 2 (Homo sapiens, UniProt Q13324)
T5 sequence (Q13324 whole entry): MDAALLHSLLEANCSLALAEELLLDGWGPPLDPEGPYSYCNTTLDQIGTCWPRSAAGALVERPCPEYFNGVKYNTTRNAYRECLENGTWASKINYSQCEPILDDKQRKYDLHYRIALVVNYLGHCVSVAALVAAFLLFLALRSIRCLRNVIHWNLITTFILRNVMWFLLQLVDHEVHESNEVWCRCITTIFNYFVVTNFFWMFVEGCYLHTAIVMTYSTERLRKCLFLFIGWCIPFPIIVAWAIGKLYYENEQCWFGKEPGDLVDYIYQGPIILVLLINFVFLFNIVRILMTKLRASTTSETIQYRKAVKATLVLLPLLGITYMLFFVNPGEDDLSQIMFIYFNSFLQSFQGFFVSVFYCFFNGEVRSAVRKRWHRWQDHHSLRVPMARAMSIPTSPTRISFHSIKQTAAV

[6] = target: Beta-3 adrenergic receptor (Homo sapiens, UniProt P13945)
Beta-3 adrenergic receptor, sequence (P13945 whole entry): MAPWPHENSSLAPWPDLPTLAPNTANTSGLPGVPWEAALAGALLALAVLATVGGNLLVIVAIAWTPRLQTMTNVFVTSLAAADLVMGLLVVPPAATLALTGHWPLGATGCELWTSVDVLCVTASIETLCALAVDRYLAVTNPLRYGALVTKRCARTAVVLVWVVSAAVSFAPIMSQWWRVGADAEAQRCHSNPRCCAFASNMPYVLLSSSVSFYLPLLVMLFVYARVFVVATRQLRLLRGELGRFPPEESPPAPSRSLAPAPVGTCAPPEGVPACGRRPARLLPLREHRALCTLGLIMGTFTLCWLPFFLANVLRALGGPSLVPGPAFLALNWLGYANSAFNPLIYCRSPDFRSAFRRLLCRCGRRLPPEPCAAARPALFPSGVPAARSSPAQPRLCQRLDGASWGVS
Further: assay procedure not described here.

| Structure (SMILES) | AC50 (Progesterone receptor) | AC50 (Mu-type opioid receptor) | AC50 [1] | AC50 [2] | AC50 (Histamine H1 receptor) | AC50 [3] | AC50 [4] | AC50 [5] | AC50 [6] |
| --- | --- | --- | --- | --- | --- | --- | --- | --- | --- |
| O=C1C(CC[S+]([O-])c2ccccc2)C(=O)N(c2ccccc2)N1c1ccccc1 (stereo unspecified) [SULFINPYRAZONE] | > 10 µM | > 30 µM |  |  |  |  |  |  |  |
| CCCN(CCC)C(=O)Cc1c(-c2ccc(Cl)cc2)nc2ccc(Cl)cn12 [ALPIDEM] | > 30 µM | > 30 µM | > 10 µM | > 10 µM | > 30 µM | > 10 µM | > 30 µM |  |  |
| CN(C)CCC[C@@]1(c2ccc(F)cc2)OCc2cc(C#N)ccc21 [ESCITALOPRAM] | > 30 µM |  |  |  |  |  |  |  |  |
| CC(C)N(CCC(C(N)=O)(c1ccccc1)c1ccccn1)C(C)C (stereo unspecified) [DISOPYRAMIDE] | 27 µM |  |  |  | > 10 µM | > 30 µM | > 30 µM | > 30 µM | 8.37 µM |
| O=C1CCc2cc(OCCCCc3nnnn3C3CCCCC3)ccc2N1 [CILOSTAZOL] | > 30 µM | > 30 µM |  |  |  |  |  |  |  |
| C[C@@H](NCCCc1cccc(C(F)(F)F)c1)c1cccc2ccccc12 | > 30 µM | 1.9 µM |  |  | 16 µM |  | 14 µM |  |  |
| C=C[C@H]1C[N@@]2CC[C@H]1C[C@@H]2[C@@H](O)c1ccnc2ccc(OC)cc12 [QUINIDINE] |  | > 30 µM |  |  | > 10 µM |  | > 30 µM |  |  |
| OC[C@H]1O[C@@](CO)(O[C@H]2O[C@H](CO)[C@@H](O)[C@H](O)[C@H]2O)[C@@H](O)[C@@H]1O [SUCROSE] | > 30 µM | > 30 µM |  |  | > 30 µM |  | > 30 µM |  |  |
| CC(=O)O[C@]1(C(C)=O)CC[C@H]2[C@@H]3C=C(C)C4=CC(=O)CC[C@@H]4[C@H]3CC[C@@]21C [NOMEGESTROL ACETATE] |  | > 30 µM |  |  | > 30 µM |  | > 30 µM |  |  |
| C[C@]12C=CC(=O)N[C@@H]1CC[C@@H]1[C@@H]2CC[C@]2(C)[C@@H](C(=O)Nc3cc(C(F)(F)F)ccc3C(F)(F)F)CC[C@@H]12 [DUTASTERIDE] | > 10 µM | > 30 µM |  |  | > 10 µM |  | > 30 µM |  |  |
| CCN1CCN(Cc2ccc(Nc3ncc(F)c(-c4cc(F)c5nc(C)n(C(C)C)c5c4)n3)nc2)CC1 [ABEMACICLIB] | > 30 µM |  |  |  | 23 µM |  | > 30 µM |  |  |
| COc1ccc(CC2c3cc(OC)c(OC)cc3CC[N+]2(C)CCC(=O)OCCCCCOC(=O)CC[N+]2(C)CCc3cc(OC)c(OC)cc3C2Cc2ccc(OC)c(OC)c2)cc1OC (stereo unspecified) | > 30 µM | > 30 µM |  | > 30 µM | > 30 µM |  | > 30 µM |  |  |
| N[C@@H](CC(=O)N1CCn2c(nnc2C(F)(F)F)C1)Cc1cc(F)c(F)cc1F [SITAGLIPTIN] | > 30 µM |  | > 10 µM | > 10 µM | > 30 µM | > 10 µM | > 30 µM |  |  |
| CC(C(=O)O)c1ccc2c(c1)[nH]c1ccc(Cl)cc12 (stereo unspecified) [CARPROFEN] | > 30 µM |  |  |  | > 10 µM |  | > 30 µM |  |  |
| CN1C[C@H](C(=O)N[C@]2(C)O[C@@]3(O)[C@@H]4CCCN4C(=O)[C@H](Cc4ccccc4)N3C2=O)C=C2c3cccc4[nH]cc(c34)C[C@H]21 [ERGOTAMINE] | > 30 µM |  |  |  |  |  |  |  |  |
| COc1ccccc1OCCNCC(O)COc1cccc2[nH]c3ccccc3c12 (stereo unspecified) [CARVEDILOL] | > 30 µM | 5.2 µM | > 10 µM | 0.189 µM |  | > 30 µM |  | > 30 µM |  |
| CN1C(C(=O)Nc2ccccn2)=C(O)c2ccccc2S1(=O)=O [PIROXICAM] | > 10 µM | > 30 µM |  |  |  |  |  |  |  |
| CN(CC1(C)CCCO1)S(=O)(=O)c1ccc(Cl)c(S(N)(=O)=O)c1 (stereo unspecified) [MEFRUSIDE] |  | > 30 µM |  |  | > 30 µM |  | > 30 µM |  |  |
| C[C@@H](Oc1cc(-c2cnn(C3CCNCC3)c2)cnc1N)c1c(Cl)ccc(F)c1Cl [CRIZOTINIB] | > 30 µM |  | > 10 µM |  | > 30 µM |  | > 30 µM |  | 14.2 µM |
| O=C1CN(/N=C/c2ccc(-c3ccc([N+](=O)[O-])cc3)o2)C(O)=N1 [DANTROLENE] | > 10 µM | > 30 µM |  |  | > 10 µM |  | > 30 µM |  |  |
| COc1cc2nccc(Oc3ccc(NC(=O)C4(C(=O)Nc5ccc(F)cc5)CC4)cc3)c2cc1OC [CABOZANTINIB] | 24 µM |  |  |  | > 30 µM |  | > 30 µM |  |  |
| CC(N)C12CC3CC(CC(C3)C1)C2 (stereo unspecified) [RIMANTADINE] | > 10 µM |  |  |  |  |  |  |  |  |
| C#C[C@]1(O)CC[C@H]2[C@@H]3CCC4=CC(=O)CC[C@@H]4[C@H]3C(=C)C[C@@]21CC [ETONOGESTREL] |  | > 30 µM |  |  | > 30 µM |  | > 30 µM |  |  |
| CC(C)c1nc(N(C)S(C)(=O)=O)nc(-c2ccc(F)cc2)c1/C=C/[C@@H](O)C[C@@H](O)CC(=O)O [ROSUVASTATIN] | > 30 µM | > 30 µM |  |  | > 30 µM |  | > 30 µM |  |  |
| C[C@H](CCC(=O)O)[C@H]1CC[C@H]2[C@@H]3[C@@H](O)C[C@@H]4C[C@H](O)CC[C@]4(C)[C@H]3CC[C@]12C [URSODIOL] |  |  |  |  | > 30 µM |  | > 30 µM |  |  |
| CC(C)(C)NCC(O)c1cc(O)cc(O)c1 (stereo unspecified) [TERBUTALINE] | > 30 µM |  |  |  |  |  |  |  |  |
| CN(C)CC[C@@H](c1ccc(Cl)cc1)c1ccccn1 [DEXCHLORPHENIRAMINE] | > 30 µM | > 30 µM |  |  |  |  |  |  |  |
| CC(S)C(=O)NCC(=O)O (stereo unspecified) [TIOPRONIN] | > 30 µM |  |  |  | > 30 µM |  | > 30 µM |  |  |
| CCN(CC)CCNC(=O)c1c(C)[nH]c(/C=C2\C(=O)Nc3ccc(F)cc32)c1C [SUNITINIB] |  | > 30 µM | 7.19 µM | 9.47 µM |  |  |  |  |  |
